# Assay results reported in article PMC3180442 (PLoS ONE, 2011).
# Experiments:
# RipA [1] = biological target: T1, RipA (Yersinia pestis, UniProt Q9ZC36); conditions: 10 mM acid vs 10 mM acetate, butyryl-CoA as CoA donor, 100 mM Tris pH 7.0, room temperature; competing acceptor acid
# RipA [2] = biological target: T1, RipA; conditions: 5 µM RipA, 20 µM ligand, 100 mM potassium phosphate pH 7.4; Tm with ligand, apo RipA 45.8 °C
# [3] = biological target: Yersinia pestis RipA (Yersinia pestis); assay: SAXS
# [4] = biological target: Yersinia pestis RipA (Yersinia pestis); assay: SEC
# [5] = biological target: Yersinia pestis RipA (Yersinia pestis); assay: crystal structure
# RipA [6] = biological target: T1, RipA; conditions: active site near Glu249; crystals grown with succinyl-CoA and tacsimate pH 5.0; acetate is the CoA acceptor in the activity assay
molecule,measurement,setting,value
O=C(O)CCCO [4-hydroxybutyrate],% decrease in the rate of acetyl-CoA formation,RipA [1],10%
C/C=C/C(=O)SCCNC(=O)CCNC(=O)[C@H](O)C(C)(C)COP(=O)(O)OP(=O)(O)OC[C@H]1O[C@@H](n2cnc3c(N)ncnc32)[C@H](O)[C@@H]1OP(=O)(O)O [Crotonyl-CoA],Tm (°C),RipA [2],47.9±0.54 °C
CC(C)(COP(=O)(O)OP(=O)(O)OC[C@H]1O[C@@H](n2cnc3c(N)ncnc32)[C@H](O)[C@@H]1OP(=O)(O)O)[C@@H](O)C(=O)NCCC(=O)NCCSC(=O)CCC(=O)O [Succinyl-CoA],Tm (°C),RipA [2],52.8±0.28 °C
Yersinia pestis RipA (enzyme),stoichiometry N,[3],4
same,stoichiometry N,[4],4
same,stoichiometry N,[5],4
CCCC(=O)O [butyrate],% decrease in the rate of acetyl-CoA formation,RipA [1],80%
CC(=O)SCCNC(=O)CCNC(=O)[C@H](O)C(C)(C)COP(=O)(O)OP(=O)(O)OC[C@H]1O[C@@H](n2cnc3c(N)ncnc32)[C@H](O)[C@@H]1OP(=O)(O)O [Acetyl-CoA],Tm (°C),RipA [2],52.8±0.03 °C
CCC(=O)SCCNC(=O)CCNC(=O)[C@H](O)C(C)(C)COP(=O)(O)OP(=O)(O)OC[C@H]1O[C@@H](n2cnc3c(N)ncnc32)[C@H](O)[C@@H]1OP(=O)(O)O [Propionyl-CoA],Tm (°C),RipA [2],53.5±0.06 °C
CC(=O)CC(=O)SCCNC(=O)CCNC(=O)[C@H](O)C(C)(C)COP(=O)(O)OP(=O)(O)OC[C@H]1O[C@@H](n2cnc3c(N)ncnc32)[C@H](O)[C@@H]1OP(=O)(O)O [Aceto-acetyl-CoA],Tm (°C),RipA [2],48.3±0.01 °C
CCCC(=O)SCCNC(=O)CCNC(=O)[C@H](O)C(C)(C)COP(=O)(O)OP(=O)(O)OC[C@H]1O[C@@H](n2cnc3c(N)ncnc32)[C@H](O)[C@@H]1OP(=O)(O)O [Butyryl-CoA],Tm (°C),RipA [2],53.4±0.05 °C
CCC(=O)O [propionate],% decrease in the rate of acetyl-CoA formation,RipA [1],80%
CC(=O)O [acetate],"X-ray crystal structure, 1.9 Å",RipA [6],electron density near the active site glutamate suggests an acetate molecule is located within
